Results on 22 compounds are retold here after ChEMBL document CHEMBL3091370, “3,5-bis(benzylidene)-4-piperidones and related N-acyl analogs: a novel cluster of antimalarials targeting the liver stage of Plasmodium falciparum” (Bioorg Med Chem, 2013).

Values after ≈ are worked out from the molar mass of the structure shown. Some results are limits rather than exact numbers.

The test system of one data set is HepG2. In words: Cytotoxicity against human HepG2 cells after 48 hrs by MTT assay. Format: cell-based. The note with it: HepG2, 48 h.
In data set [1] the test system is Plasmodium falciparum. Kind of data set: Antimalarial activity against drug-resistant Plasmodium falciparum C235 after 72 hrs by SYBR green I staining-based fluorescence assay. Format: functional, organism-based. The note with it: C235, 72 h.
For data set [2], the system named is Plasmodium berghei. In words: Antimalarial activity against liver stage Plasmodium berghei ANKA sporozoites infected in human HepG2 cells after 48 hrs by luciferase reporter gene assay. The data set is classed as functional, organism-based. As to conditions: HepG2, 48 h. Background: In a reporter assay the amount or activity of a reporter protein is the signal.

Data set [3] deals with Plasmodium falciparum. In words: Ratio of IC50 for drug-resistant Plasmodium falciparum C235 to IC50 for drug-sensitive Plasmodium falciparum D6. Format: functional.
For data set [4], the system named is Plasmodium falciparum. In words: Antimalarial activity against drug-sensitive Plasmodium falciparum D6 after 72 hrs by SYBR green I staining-based fluorescence assay. The data set is classed as functional, organism-based. The note with it: D6, 72 h.
The nature of data set [5]: Apparent permeability from basolateral to apical side in MDCK cells at 10 uM after 1 hr by LC/MS analysis. Format: ADME, cell-based, Canis lupus familiaris. The note with it: dog.
Data set [6] is described as follows: Half life in human plasma at 1 mM by LC/MS analysis. The data set is classed as ADME, cell-free.
Data set [7] is described as follows: Half life in mouse plasma at 1 mM by LC/MS analysis. Format: ADME, cell-free.
A short description of data set [8]: Apparent permeability from apical to basolateral side in MDCK cells at 10 uM after 1 hr by LC/MS analysis. The data set is classed as ADME, cell-based, Canis lupus familiaris. The note with it: dog.
In data set [9] the test system is Plasmodium berghei. In words: Ratio of mefloquine IC50 to compound IC50 for liver stage Plasmodium berghei ANKA sporozoites infected in human HepG2 cells. Format: functional.
A short description of data set [10]: Efflux ratio of apparent permeability from basolateral to apical side to apical to basolateral side in MDCK cells. The data set is classed as ADME, cell-based, Canis lupus familiaris. The note with it: dog.
For data set [11], the system named is Plasmodium berghei. Kind of data set: Ratio of chloroquine IC50 to compound IC50 for liver stage Plasmodium berghei ANKA sporozoites infected in human HepG2 cells. Format: functional.

In general, IC50 refers to the concentration at which inhibition is half-maximal. A high value points to weaker potency in that assay. As to `Cl.O=C1/C(=C/c2ccc([N+](=O)[O-])cc2)CN(C(=O)c2ccc(OCCN3CCCCC3)cc2)C/C1=C\c1ccc([N+](=O)[O-])cc1`, the IC50 is more than 2 µg/mL in the data set on HepG2, 0.288 µg/mL in the data set on Plasmodium falciparum [1], 0.165 µg/mL in the data set on Plasmodium berghei [2] and 0.25 µg/mL with Plasmodium falciparum [4]. In addition, the “Ratio IC50” value in the data set on Plasmodium falciparum [3] was determined as 1.15.
Usually Papp B→A stands for how fast a substance crosses the layer from the basolateral side. One may read the half-life as how long it takes for the measured level to halve. Low values mean rapid decline, high ones slow decline. Usually Papp A→B stands for the apparent permeability from the apical to the basolateral side of a cell layer. As for `CCN(CC)CCCC(C)Nc1ccnc2cc(Cl)ccc12` (stereo not drawn) [CHLOROQUINE], the Papp B→A at 1 h, 10 µM in data set [5] amounted to 14 ×10⁻⁶ cm/s. Also, the half-life in data set [6] and in data set [7] was more than 60 min in each case. For the same compound, the Papp A→B at 1 h, 10 µM in [8] amounted to 13 ×10⁻⁶ cm/s.
For the compound `CCN(CC)CCOc1ccc(C(=O)N2C/C(=C\c3ccc([N+](=O)[O-])cc3)C(=O)/C(=C/c3ccc([N+](=O)[O-])cc3)C2)cc1.Cl`, the IC50 was more than 2 µg/mL with HepG2, 0.146 µg/mL in the data set with Plasmodium falciparum [1], 0.186 µg/mL with Plasmodium berghei [2] and 0.202 µg/mL in the data set with Plasmodium falciparum [4]. Also, the “Ratio IC50” value in the data set on Plasmodium falciparum [3] was 0.72.
As for `Cc1ccc(/C=C2\CN(C(=O)c3ccc(OCCN(C)C)cc3)C/C(=C\c3ccc(C)cc3)C2=O)cc1.Cl`, the IC50 with HepG2, with Plasmodium falciparum [1], in the data set with Plasmodium berghei [2] and with Plasmodium falciparum [4] was more than 2 µg/mL throughout.
For `Cl.O=C1/C(=C/c2ccccc2)CN(C(=O)c2ccc(OCCN3CCCCC3)cc2)C/C1=C\c1ccccc1`, the 50% inhibitory concentration (IC50) with Plasmodium falciparum [1] worked out at 0.74 µg/mL; with Plasmodium falciparum [4], 0.794 µg/mL. For the same compound, the “Ratio IC50” value in the data set on Plasmodium falciparum [3] is reported as 0.93.
As to `Cl.O=C1/C(=C/c2ccc([N+](=O)[O-])cc2)CN(C(=O)c2ccc(OCCN3CCOCC3)cc2)C/C1=C\c1ccc([N+](=O)[O-])cc1`, the IC50 was more than 2 µg/mL in the data set with HepG2, 0.53 µg/mL in the data set with Plasmodium falciparum [1], 0.357 µg/mL in the data set on Plasmodium berghei [2] and 0.433 µg/mL with Plasmodium falciparum [4]. The “Ratio IC50” value with Plasmodium falciparum [3] came to 1.22.
One may read the efflux ratio as the permeability from basolateral to apical divided by that in the opposite direction, in the common usage. On to `O=C1/C(=C/c2ccccc2)CNC/C1=C\c1ccccc1`, for which the Papp B→A at 1 h, 10 µM in [5] is 0.1 ×10⁻⁶ cm/s. The “Ratio IC50” value in the data set on Plasmodium berghei [9] is given as more than 21; in the data set on Plasmodium falciparum [3], 1.17; with Plasmodium berghei [11], more than 21. The IC50 with HepG2 was more than 2 µg/mL; in the data set on Plasmodium falciparum [1] it was 0.162 µg/mL (≈ 0.588 µM); in the data set with Plasmodium berghei [2] it was 0.0935 µg/mL (≈ 0.34 µM); in the data set with Plasmodium falciparum [4] it was 0.139 µg/mL (≈ 0.505 µM). Also, the half-life in [6] turned out to be 11.8 min; in [7], 19.5 min. Moreover, in [8], the Papp A→B at 1 h, 10 µM was found to be 5.74 ×10⁻⁶ cm/s. For the same compound, in data set [10], the efflux ratio was 0.02.
On to `Cc1ccc(/C=C2\CN(C(=O)c3ccc(OCCN4CCOCC4)cc3)C/C(=C\c3ccc(C)cc3)C2=O)cc1.Cl`, for which the half-maximal inhibitory concentration (IC50) with Plasmodium falciparum [1] is more than 2 µg/mL; with Plasmodium falciparum [4], 0.846 µg/mL. The “Ratio IC50” value in the data set with Plasmodium falciparum [3] is listed as more than 2.36.
As to `O[C@@H](c1cc(C(F)(F)F)nc2c(C(F)(F)F)cccc12)[C@H]1CCCCN1` (relative stereo) [(S,R)-MEFLOQUINE], the Papp B→A at 1 h, 10 µM in data set [5] worked out at 3.7 ×10⁻⁶ cm/s. In addition, the IC50 with HepG2 is more than 2 µg/mL; in the data set with Plasmodium falciparum [1], 0.0167 µg/mL (≈ 0.0441 µM); in the data set with Plasmodium berghei [2], more than 2 µg/mL; with Plasmodium falciparum [4], 0.0066 µg/mL (≈ 0.0174 µM). Besides, the half-life in [6] and in data set [7] was more than 60 min in each case. For the same compound, the Papp A→B at 1 h, 10 µM in data set [8] was 0.6 ×10⁻⁶ cm/s. In addition, the “Ratio IC50” value in the data set with Plasmodium falciparum [3] was 2. In addition, in data set [10], the efflux ratio turned out to be 6.17.
Consider `O=C1/C(=C/c2ccc(Cl)cc2)CNC/C1=C\c1ccc(Cl)cc1`, for which the IC50 in the data set with HepG2 was more than 2 µg/mL; in the data set with Plasmodium falciparum [1] it was 0.128 µg/mL (≈ 0.372 µM); in the data set on Plasmodium berghei [2], 0.597 µg/mL (≈ 1.73 µM); in the data set on Plasmodium falciparum [4], 0.103 µg/mL (≈ 0.299 µM). Also, the half-life in [6] and in [7] was more than 60 min each time. Moreover, the “Ratio IC50” value with Plasmodium falciparum [3] is 1.24.
On to `CN(C)CCOc1ccc(C(=O)N2C/C(=C\c3ccc(Cl)cc3)C(=O)/C(=C/c3ccc(Cl)cc3)C2)cc1.Cl`, for which the results for the IC50 with Plasmodium falciparum [1] and in the data set with Plasmodium falciparum [4] were 0.565 µg/mL and 0.497 µg/mL, respectively. Moreover, in the data set with Plasmodium falciparum [3], the “Ratio IC50” value is on record as 1.14.
For `Cl.O=C1/C(=C/c2ccc(Cl)cc2)CN(C(=O)c2ccc(OCCN3CCCCC3)cc2)C/C1=C\c1ccc(Cl)cc1`, the IC50 in the data set with Plasmodium falciparum [1] and in the data set with Plasmodium falciparum [4] was more than 2 µg/mL in each case. For the same compound, the “Ratio IC50” value in the data set on Plasmodium falciparum [3] is reported as more than 1.06.
As to `CN(C)CCOc1ccc(C(=O)N2C/C(=C\c3ccccc3)C(=O)/C(=C/c3ccccc3)C2)cc1.Cl`, the IC50 with Plasmodium falciparum [1] is more than 2 µg/mL; in the data set with Plasmodium falciparum [4], 1.75 µg/mL. In the data set with Plasmodium falciparum [3], the “Ratio IC50” value is on record as more than 1.14.
As to `CCN(CC)CCCC(C)Nc1ccnc2cc(Cl)ccc12.O=P(O)(O)O.O=P(O)(O)O` (stereo not drawn) [CHLOROQUINE PHOSPHATE], the concentration for half-maximal inhibition (IC50) with HepG2 and with Plasmodium berghei [2] was more than 2 µg/mL throughout.
`CCN(CC)CCOc1ccc(C(=O)N2C/C(=C\c3ccc(C)cc3)C(=O)/C(=C/c3ccc(C)cc3)C2)cc1.Cl`: the IC50 was more than 2 µg/mL with HepG2, 0.555 µg/mL with Plasmodium falciparum [1], 0.483 µg/mL in the data set on Plasmodium berghei [2] and 0.536 µg/mL with Plasmodium falciparum [4]. The “Ratio IC50” value with Plasmodium falciparum [3] was found to be 1.03.
For the compound `Cc1ccc(/C=C2\CN(C(=O)c3ccc(OCCN4CCCCC4)cc3)C/C(=C\c3ccc(C)cc3)C2=O)cc1.Cl`, the figures for the IC50 with Plasmodium falciparum [1] and in the data set on Plasmodium falciparum [4] were 0.713 µg/mL and 0.682 µg/mL, respectively. Besides, the “Ratio IC50” value with Plasmodium falciparum [3] was 1.05.
Regarding `Cc1ccc(/C=C2\CNC/C(=C\c3ccc(C)cc3)C2=O)cc1`, the half-maximal inhibitory concentration (IC50) was more than 2 µg/mL in the data set with HepG2, 0.285 µg/mL (≈ 0.939 µM) in the data set on Plasmodium falciparum [1], 0.159 µg/mL (≈ 0.524 µM) with Plasmodium berghei [2] and 0.249 µg/mL (≈ 0.821 µM) in the data set on Plasmodium falciparum [4]. Besides, the half-life in [6] was determined as 17.2 min; in data set [7], 14.6 min. For the same compound, in the data set on Plasmodium falciparum [3], the “Ratio IC50” value was determined as 1.15.
Take `CCN(CC)CCOc1ccc(C(=O)N2C/C(=C\c3ccc(Cl)cc3)C(=O)/C(=C/c3ccc(Cl)cc3)C2)cc1.Cl`: the IC50 with Plasmodium falciparum [1] and with Plasmodium falciparum [4] was more than 2 µg/mL in each case.
On to `CCN(CC)CCOc1ccc(C(=O)N2C/C(=C\c3ccccc3)C(=O)/C(=C/c3ccccc3)C2)cc1.Cl`, for which the IC50 with HepG2 was more than 2 µg/mL; in the data set on Plasmodium falciparum [1], 0.311 µg/mL; in the data set with Plasmodium berghei [2] it was 0.383 µg/mL; in the data set on Plasmodium falciparum [4] it was 0.412 µg/mL. Also, the “Ratio IC50” value in the data set on Plasmodium falciparum [3] is listed as 0.76.
The matching figures for `CN(C)CCOc1ccc(C(=O)N2C/C(=C\c3ccc([N+](=O)[O-])cc3)C(=O)/C(=C/c3ccc([N+](=O)[O-])cc3)C2)cc1.Cl`: more than 2 µg/mL, 0.372 µg/mL, 0.31 µg/mL, 0.424 µg/mL and 0.88.
As to `O=C1/C(=C/c2ccc([N+](=O)[O-])cc2)CNC/C1=C\c1ccc([N+](=O)[O-])cc1`, the IC50 with HepG2 was more than 2 µg/mL; in the data set on Plasmodium falciparum [1] it was 0.0412 µg/mL (≈ 0.113 µM); with Plasmodium berghei [2], 0.356 µg/mL (≈ 0.974 µM); in the data set on Plasmodium falciparum [4] it was 0.0375 µg/mL (≈ 0.103 µM). For the same compound, the half-life in data set [6] is more than 60 min; in [7], 22.5 min. For the same compound, in data set [8], the apical-to-basolateral permeability (Papp A→B) at 1 h, 10 µM stood at 0.28 ×10⁻⁶ cm/s. Moreover, the “Ratio IC50” value with Plasmodium falciparum [3] was determined as 1.1. In data set [10], the efflux ratio stood at 0.01.
As to `Cl.O=C1/C(=C/c2ccccc2)CN(C(=O)c2ccc(OCCN3CCOCC3)cc2)C/C1=C\c1ccccc1`, the IC50 with Plasmodium falciparum [1] was more than 2 µg/mL; in the data set on Plasmodium falciparum [4] it was 1.42 µg/mL. Moreover, in the data set with Plasmodium falciparum [3], the “Ratio IC50” value is more than 1.41.
